Laboratory results as given in patent US8410151B2, “Aminomethyl benzene derivatives” (Actelion Pharmaceuticals Ltd, priority 2009, dated 2013).

Biological target: recombinant human S1P1 receptor (Homo sapiens, UniProt P21453)
Assay: GTPγS assay to determine EC50 values
Format: biochemical
Conditions: 35S-GTPγS binding, membrane preparations of CHO cells expressing recombinant human S1P1 receptor
Experimental: GTPγS binding assays are performed in 96 well microtiter plates (Nunc, 442587) in a final volume of 200 μl, using membrane preparations of CHO cells expressing recombinant human S1P1 receptor. Assay conditions are 20 mM Hepes (Fluka, 54461), 100 mM NaCl (Fluka, 71378), 5 mM MgCl2 (Fluka, 63064), 0.1% BSA (Calbiochem, 126609), 1 μM GDP (Sigma, G-7127), 2.5% DMSO (Fluka, 41644), 50 pM ^355-GTPγS (Amersham Biosciences, SJ1320). The pH is 7.4. Test compounds are dissolved and diluted in 100% DMSO and pre-incubated at room temperature for 30 min in 150 μl of the above assay buffer, in the absence of ^355-GTPγS. After addition of 50 μl of ^355-GTPγS, the assay is incubated for 1 h at rt. The assay is terminated by transfer of the reaction mixture to a Multiscreen plate (Millipore, MAHFC1H60) using a cell harvester from Packard Biosciences, and the plates are washed with ice-cold 10 mM Na2HPO4/NaH2PO4 (70%/30%), dried, sealed at the bottom and, after addition of 25 μl MicroScint20 (Packard Biosciences, order #6013621), sealed on the top. Membrane-bound ^35S-GTPγS is measured with a TopCount from Packard Biosciences.
EC50 is the concentration of agonist inducing 50% of the maximal specific ^35S-GTPγS binding. Specific binding is determined by subtracting non-specific binding from maximal binding. Maximal binding is the amount of cpm bound to the Multiscreen plate in the presence of 10 μM of S1P. Non-specific binding is the amount of binding in the absence of an agonist in the assay.

Chain of recombinant human S1P1 receptor (P21453 whole entry): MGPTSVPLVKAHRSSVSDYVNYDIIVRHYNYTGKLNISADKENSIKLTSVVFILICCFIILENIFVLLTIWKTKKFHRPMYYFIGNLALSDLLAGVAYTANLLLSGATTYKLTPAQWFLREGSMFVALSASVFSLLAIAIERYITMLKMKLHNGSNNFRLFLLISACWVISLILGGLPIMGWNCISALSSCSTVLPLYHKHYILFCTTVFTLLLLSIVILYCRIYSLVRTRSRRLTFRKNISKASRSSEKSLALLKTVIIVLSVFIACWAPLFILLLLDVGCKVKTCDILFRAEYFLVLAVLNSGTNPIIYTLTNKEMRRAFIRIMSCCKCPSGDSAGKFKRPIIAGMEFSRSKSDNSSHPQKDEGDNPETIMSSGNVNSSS

Row | Compound | EC50 [nM]
1 | CCc1cc(-c2noc(-c3cc(C)cc(CN4CCCC4)c3)n2)cc(C)c1OC[C@@H](O)CNC(=O)CO [Example 22, N—((S)-3-{2-ethyl-6-methyl-4-[5-(3-methyl-5-pyrrolidin-1-ylmethyl-phenyl)-[1,2,4]oxadiazol-3-yl]-phenoxy}-2-hydroxy-propyl)-2-hydroxy-acetamide] | 7
2 | CCc1cc(-c2noc(-c3cc(CN4CCCC4)cc(C(C)C)c3)n2)cc(C)c1OC[C@@H](O)CNC(=O)CO [Example 75, N—((S)-3-{2-ethyl-4-[5-(3-isopropyl-5-pyrrolidin-1-ylmethyl-phenyl)-[1,2,4]oxadiazol-3-yl]-6-methyl-phenoxy}-2-hydroxy-propyl)-2-hydroxy-acetamide] | 7.2
3 | CCc1ccc(-c2nc(-c3cc(C)c(OC[C@@H](O)CNC(=O)CO)c(CC)c3)no2)cc1CN(C)C [Example 89] | 22
4 | CCc1cc(-c2nc(-c3cc(C)c(OC[C@@H](O)CNC(=O)CO)c(CC)c3)no2)ccc1CN1CCCC1 [Example 105, N—((S)-3-{2-ethyl-4-[5-(3-ethyl-4-pyrrolidin-1-ylmethyl-phenyl)-[1,2,4]oxadiazol-3-yl]-6-methyl-phenoxy}-2-hydroxy-propyl)-2-hydroxy-acetamide] | 8
5 | N-(3-{4-[5-(4-dimethylaminomethyl-3-methyl-phenyl)-[1,2,4]oxadiazol-3-yl]-2,6-dimethyl-phenoxy}-2-hydroxy-propyl)-2-hydroxy-acetamide [Example 127] | 8.5

Other lines, results leading:

Row | EC50 [nM] | Compound
6 | 2.7 | CCc1cc(-c2noc(-c3cc(C)cc(CN(C)CC)c3)n2)cc(C)c1OC[C@@H](O)CNC(=O)CO [Example 16, N—{(S)-3-[2-ethyl-4-(5-{3-[(ethyl-methyl-amino)-methyl]-5-methyl-phenyl}-[1,2,4]oxadiazol-3-yl)-6-methyl-phenoxy]-2-hydroxy-propyl}-2-hydroxy-acetamide]
7 | 3.3 | CCCCN(C)Cc1cc(C)cc(-c2nc(-c3cc(C)c(OC[C@@H](O)CNC(=O)CO)c(CC)c3)no2)c1 [Example 18, N—{(S)-3-[4-(5-{3-[(butyl-methyl-amino)-methyl]-5-methyl-phenyl}-[1,2,4]oxadiazol-3-yl)-2-ethyl-6-methyl-phenoxy]-2-hydroxy-propyl}-2-hydroxy-acetamide]
8 | 2.1 | CCCN(C)Cc1cc(-c2nc(-c3cc(C)c(OC[C@@H](O)CNC(=O)CO)c(CC)c3)no2)cc(C(C)C)c1 [Example 71, N—{(S)-3-[2-ethyl-4-(5-{3-isopropyl-5-[(methyl-propyl-amino)-methyl]-phenyl}-[1,2,4]oxadiazol-3-yl)-6-methyl-phenoxy]-2-hydroxy-propyl}-2-hydroxy-acetamide]
9 | 2.3 | CCCCN(C)Cc1cc(-c2nc(-c3cc(C)c(OC[C@@H](O)CNC(=O)CO)c(CC)c3)no2)cc(C(C)C)c1 [Example 72, N—{(S)-3-[4-(5-{3-[(butyl-methyl-amino)-methyl]-5-isopropyl-phenyl}-[1,2,4]oxadiazol-3-yl)-2-ethyl-6-methyl-phenoxy]-2-hydroxy-propyl}-2-hydroxy-acetamide]
10 | 2 | CCc1cc(-c2noc(-c3cc(CN(C)CC(C)C)cc(C(C)C)c3)n2)cc(C)c1OC[C@@H](O)CNC(=O)CO [Example 73, N—{(S)-3-[2-ethyl-4-(5-{3-[(isobutyl-methyl-amino)-methyl]-5-isopropyl-phenyl}-[1,2,4]oxadiazol-3-yl)-6-methyl-phenoxy]-2-hydroxy-propyl}-2-hydroxy-acetamide]
11 | 1.6 | CCc1cc(-c2nc(-c3cc(C)c(OC[C@@H](O)CNC(=O)CO)c(CC)c3)no2)ccc1CN(C)CC [Example 100, N—{(S)-3-[2-ethyl-4-(5-{3-ethyl-4-[(ethyl-methyl-amino)-methyl]-phenyl}-[1,2,4]oxadiazol-3-yl)-6-methyl-phenoxy]-2-hydroxy-propyl}-2-hydroxy-acetamide]
12 | 2 | CCN(C)Cc1cc(C)cc(-c2nc(-c3cc(C)c(OC[C@@H](O)CO)c(Cl)c3)no2)c1 [Example 144, (S)-3-[2-chloro-4-(5-{3-[(ethyl-methyl-amino)-methyl]-5-methyl-phenyl}-[1,2,4]oxadiazol-3-yl)-6-methyl-phenoxy]-propane-1,2-diol]
13 | 2 | CCN(C)Cc1cc(C)cc(-c2nc(-c3cc(C)c(OC[C@@H](O)CNC(=O)CO)c(C)c3)no2)c1 [Example 147, N—{(S)-3-[4-(5-{3-[(ethyl-methyl-amino)-methyl]-5-methyl-phenyl}-[1,2,4]oxadiazol-3-yl)-2,6-dimethyl-phenoxy]-2-hydroxy-propyl}-2-hydroxy-acetamide]
14 | 1.3 | CCN(C)Cc1cc(C)cc(-c2nc(-c3cc(C)c(OC[C@@H](O)CNC(=O)CO)c(Cl)c3)no2)c1 [Example 148, N—{(S)-3-[2-chloro-4-(5-{3-[(ethyl-methyl-amino)-methyl]-5-methyl-phenyl}-[1,2,4]oxadiazol-3-yl)-6-methyl-phenoxy]-2-hydroxy-propyl}-2-hydroxy-acetamide]

System: circulating lymphocytes
Assay: Assessment of in vivo efficacy: circulating lymphocytes after oral administration
Design: species or system normotensive male Wistar rats
Conditions: 3 h after oral administration of 10 mg/kg, male Wistar rats, compared to vehicle-treated group
Experimental: The efficacy of the compounds of formula (I) is assessed by measuring the circulating lymphocytes after oral administration of 3 to 30 mg/kg of a compound of formula (I) to normotensive male Wistar rats. The animals are housed in climate-controlled conditions with a 12 h-light/dark cycle, and have free access to normal rat chow and drinking water.
Blood is collected before and 3, 6 and 24 h after drug administration. Full blood is subjected to hematology using Advia Hematology system (Bayer Diagnostics, Zurich, Switzerland).
All data are presented as mean±SEM. Statistical analyses are performed by analysis of variance (ANOVA) using Statistica (StatSoft) and the Student-Newman-Keuls procedure for multiple comparisons. The null hypothesis is rejected when p<0.05.

Row | Compound | Lymphocyte counts [%]
15 | CCc1cc(-c2noc(-c3cc(C)cc(CN(C)CC)c3)n2)cc(C)c1OC[C@@H](O)CNC(=O)CO [Example 16, N—{(S)-3-[2-ethyl-4-(5-{3-[(ethyl-methyl-amino)-methyl]-5-methyl-phenyl}-[1,2,4]oxadiazol-3-yl)-6-methyl-phenoxy]-2-hydroxy-propyl}-2-hydroxy-acetamide] | −62.1
16 | CCCCN(C)Cc1cc(C)cc(-c2nc(-c3cc(C)c(OC[C@@H](O)CNC(=O)CO)c(CC)c3)no2)c1 [Example 18, N—{(S)-3-[4-(5-{3-[(butyl-methyl-amino)-methyl]-5-methyl-phenyl}-[1,2,4]oxadiazol-3-yl)-2-ethyl-6-methyl-phenoxy]-2-hydroxy-propyl}-2-hydroxy-acetamide] | −63.0
17 | CCc1cc(-c2noc(-c3cc(C)cc(CN4CCCC4)c3)n2)cc(C)c1OC[C@@H](O)CNC(=O)CO [Example 22, N—((S)-3-{2-ethyl-6-methyl-4-[5-(3-methyl-5-pyrrolidin-1-ylmethyl-phenyl)-[1,2,4]oxadiazol-3-yl]-phenoxy}-2-hydroxy-propyl)-2-hydroxy-acetamide] | −61.0
18 | CCc1cc(CN(C)CC(C)C)cc(-c2nc(-c3cc(C)c(OC[C@@H](O)CNC(=O)CO)c(CC)c3)no2)c1 [Example 53, N—{(S)-3-[2-ethyl-4-(5-{3-ethyl-5-[(isobutyl-methyl-amino)-methyl]-phenyl}-[1,2,4]oxadiazol-3-yl)-6-methyl-phenoxy]-2-hydroxy-propyl}-2-hydroxy-acetamide] | −61.0
19 | CCc1cc(-c2nc(-c3cc(C)c(OC[C@@H](O)CNC(=O)CO)c(CC)c3)no2)ccc1CN(C)C [Example 99, N—((S)-3-{4-[5-(4-dimethylaminomethyl-3-ethyl-phenyl)-[1,2,4]oxadiazol-3-yl]-2-ethyl-6-methyl-phenoxy}-2-hydroxy-propyl)-2-hydroxy-acetamide] | −61.0
